# Test results: patent publication US20030083323A1, “Oral use of dehydroepiandrosterone and some of its derivatives as pigmentation regulators” (priority 2000, published 2003)
# Several values for one entry are separate records, joined by “and”; a condition that tells them apart may be missing. Equal entries are not always repeated.
# What was measured:
# [1] = system: hair (degree of canities); experiment: Effect of oral DHEA on canities, questionnaire at end of randomized double-blind clinical study versus placebo; format: in vivo, human; settings: oral DHEA 50 mg daily, 6 months
# Experimental: The evaluation was carried out using a randomized double-blind clinical study on 140 individuals. The inclusion criteria were as follows: healthy male volunteers free of any severe pathological condition and 60 to 80 years old.
# The treatment consisted, for 6 months, of a daily dose of 50 mg of DHEA, taken in the morning, in the form of a breakable tablet, for half the individuals, or of its placebo for the other half of the individuals.
# At the end of the 6 months of treatment, the individuals answered a series of questions concerning the state of their hair and the effect of the treatment on various parameters, in particular regarding their degree of canities (improvement, worsening or no change in the number of white hairs).
# The statistical analysis is performed with Wilcoxon tests.
# human skin = experiment: Depigmenting power on the skin of DHEA administered orally, colorimetry b* (Minolta CR200 chromameter), randomized double-blind clinical study versus placebo; format: in vivo; settings: oral DHEA 50 mg per day, 12 months, healthy female volunteers 60 to 80 years old; p=0.006, Wilcoxon test
# Experimental: The evaluation was carried out using a randomized double-blind clinical study on 140 individuals. The inclusion criteria were as follows: healthy female volunteers free of any severe pathological condition and 60 to 80 years old.
# The treatment consisted, for 12 months, of a daily dose of 50 mg of DHEA, taken in the morning, in the form of a breakable tablet, for half the individuals, or of a placebo for the other half of the individuals.
# The skin pigmentation is measured at the start of treatment (TO) and after 12 months (T12), by colorimetry using a Minolta CR200 chromameter (Minolta, 365, route de Saint-Germain 78424 Carrières sur Seine).
# This machine describes the colors in a three-dimensional space, using the system of coordinates L, a* and b* and recommended by the CIE in 1976. In this system, L* expresses the luminance or clarity of the color (0 corresponding to black and 100 to white), a is the component for separation between green (negative) and red (positive) and b*, which varies from blue (negative) to yellow (positive) expresses the pigmentation of the skin. The latter parameter was used to evaluate the change in skin color during the treatment.
# The machine is calibrated on a standard “white” (surface provided with the machine) at the beginning of each day of measurement and the calibration is controlled throughout the day. […]
# [2] = healthy male volunteers 60 to 80 years old, total 64
structure (smiles),measurement,setting,value
"C[C@]12CC[C@H](O)CC1=CC[C@@H]1[C@@H]2CC[C@]2(C)C(=O)CC[C@@H]12 [DHEA, dehydroepiandrosterone]","degree of canities: Improvement (number of individuals, number of white hairs decreased)",[1]; [2],5
same,degree of canities: No change (number of individuals),[1]; [2],59
same,degree of canities: Worsening (number of individuals),[1]; [2],no individual experienced a worsening and 0
same,overall effect on hair pigmentation versus placebo,"[1]; difference between treatments significant, p=0.0094, Wilcoxon test",propigmenting effect on hair
same,skin pigmentation (b*) compared to the placebo group,human skin,significant decrease in pigmentation
